Measured values as given in ChEMBL document CHEMBL3045554, “Synthesis and antimicrobial screening of N-(1-methyl-1H-pyrazole-4-carbonyl)-thiourea derivatives” (2012).

Tests used:
Type in all cases: functional
Enterococcus faecalis = assay: Antimicrobial activity against Enterococcus faecalis 13773 by microdilution method
Staphylococcus aureus = assay: Antimicrobial activity against Staphylococcus aureus by microdilution method
Pseudomonas aeruginosa = assay: Antimicrobial activity against Pseudomonas aeruginosa 5541 by microdilution method
Acinetobacter baumannii = assay: Antimicrobial activity against Acinetobacter baumannii 15896 by microdilution method
Escherichia coli = assay: Antimicrobial activity against Escherichia coli 637/2007 by microdilution method
Klebsiella pneumoniae = assay: Antimicrobial activity against Klebsiella pneumoniae 126/2007 by microdilution method
Bacillus subtilis = assay: Antimicrobial activity against Bacillus subtilis 10.10.2006 by microdilution method

Row | MIC (Enterococcus faecalis) | MIC (Staphylococcus aureus) | MIC (Pseudomonas aeruginosa) | MIC (Acinetobacter baumannii) | MIC (Escherichia coli) | MIC (Klebsiella pneumoniae) | MIC (Bacillus subtilis) | Compound
1 | > 1000 µg/mL | > 1000 µg/mL | > 1000 µg/mL | > 1000 µg/mL | > 1000 µg/mL | > 1000 µg/mL | > 1000 µg/mL | CCCc1ccc(NC(=S)NC(=O)c2cnn(C)c2)cc1
2 | > 1000 µg/mL | > 1000 µg/mL | > 1000 µg/mL | > 1000 µg/mL | > 1000 µg/mL | > 1000 µg/mL | > 1000 µg/mL | CCC(C)c1ccccc1NC(=S)NC(=O)c1cnn(C)c1 (stereo unspecified)
3 | > 1000 µg/mL | > 1000 µg/mL | > 1000 µg/mL | > 1000 µg/mL | > 1000 µg/mL | > 1000 µg/mL | > 1000 µg/mL | Cc1ccc(NC(=S)NC(=O)c2cnn(C)c2)cc1
